Laboratory results as given in patent US10959986B2, “Inhibitors of indoleamine 2,3-dioxygenase and methods of their use” (BRISTOL-MYERS SQUIBB COMPANY, priority 2018, dated 2021).
Read-outs that look alike come from different tables or passages of the source.

Target: T1, indoleamine 2,3-dioxygenase (IDO) (Homo sapiens, UniProt P14902)
T1 construct: media containing IFNγ (#285-IF/CF, R&D Systems) at a final concentration of 25 ng/mL; endogenous in cells; host or cells: HeLa (ATCC CCL-2), induced with IFN-gamma
T1 sequence (P14902 whole entry): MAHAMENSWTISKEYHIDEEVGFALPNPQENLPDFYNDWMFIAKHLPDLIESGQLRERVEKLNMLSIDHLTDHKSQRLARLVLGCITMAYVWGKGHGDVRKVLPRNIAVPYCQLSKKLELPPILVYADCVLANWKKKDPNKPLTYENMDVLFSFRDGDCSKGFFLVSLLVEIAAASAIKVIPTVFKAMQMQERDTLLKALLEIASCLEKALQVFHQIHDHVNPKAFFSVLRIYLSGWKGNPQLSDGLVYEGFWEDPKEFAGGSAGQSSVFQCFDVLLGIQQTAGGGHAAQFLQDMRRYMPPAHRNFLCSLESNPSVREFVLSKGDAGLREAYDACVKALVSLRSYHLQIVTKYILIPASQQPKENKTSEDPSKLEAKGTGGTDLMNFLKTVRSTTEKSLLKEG
Assay: HeLa cell-based indoleamine 2,3-dioxygenase (IDO) assay
Conditions: HeLa cells with IFNγ 25 ng/mL, 48 hour incubation, kynurenine production
Procedure: Assessment of Inhibitor Activity in HeLa Cell-Based Indoleamine 2,3-Dioxygenase (IDO) Assay.
HeLa (ATCCR CCL-2) cells were obtained from the ATCC® and cultured in Dulbecco's Modified Eagle Medium supplemented with 4.5 g/L glucose, […] L-glutamine and […] (#10-013-CV, Corning), 2 mM L-alanyl-L-glutamine dipeptide (#35050-061, Gibco), 100U/mL penicillin, 100 µg/mL streptomycin (#SV30010, HyClone) and 10% fetal bovine serum (#SH30071.03 HyClone). Cells were maintained in a humidified incubator at 37° C. in 5% CO2.
IDO activity was assessed as a function of kynurenine production as follows: HeLa cells were seeded in a 96-well culture plate at a density of 5,000 cells/well and allowed to equilibrate overnight. After 24 hours, the media was aspirated and replaced with media containing IFNγ (#285-IF/CF, R&D Systems) at a final concentration of 25 ng/mL. A serial dilution of each test compound was added to the cells in a total volume of 200 μL of culture medium. After a further 48 hour incubation, 170 μL of supernatant was transferred from each well to a fresh 96-well plate. 12.1 μL of 6. IN trichloroacetic acid (#T0699, Sigma-Aldrich) was added to each well and mixed, followed by incubation at 65° C. for 20 minutes to hydrolyze N-formylkynurenine, the product of indoleamine 2,3-dioxygenase, to kynurenine. The reaction mixture was then centrifuged for 10 mins at 500×g to sediment the precipitate. 100 μL of the supernatant was transferred from each well to a fresh 96-well plate. 100 μl of 2% (w/v) p-dimethylaminobenzaldehyde (#15647-7, Sigma-Aldrich) in acetic acid (#A6283, Sigma-Aldrich) was added to each well mixed and incubated at room temperature for 20 mins. Kynurenine concentrations were determined by measuring absorbance at 480 nm and calibrating against an L-kynurenine (#K8625, Sigma-Aldrich) standard curve using a SPECTRAMAX® M2e microplate reader (Molecular Devices). The percentage activity at each inhibitor concentration was determined and IC50 values assessed using nonlinear regression.

[1] = read-out: IDO Hela IC50 potency class (A < 50, B < 250, C < 2000)

| Compound | IC50 (read-out: IDO Hela IC50) | IC50 [1] |
| --- | --- | --- |
| CCOc1ncc(Nc2cc([C@H](CC)CC(=O)O)ccc2-c2ncc(C)cn2)cn1 (single isomer, unassigned) [Example 69] | 110 nM |  |
| CCOc1ncc(Nc2cc([C@H](CC)CC(=O)O)ccc2-c2ccc(Cl)cc2F)cn1 (single isomer, unassigned) [Example 70] | 230 nM |  |
| CCOc1ncc(Nc2cc([C@H](CC)CC(=O)O)ccc2-c2ccc(Cl)cc2)cn1 (single isomer, unassigned) [Example 71] | 110 nM |  |
| CCOc1ncc(Nc2cc([C@H](CC)CC(=O)O)ccc2-c2ccc(Cl)c(F)c2)cn1 (single isomer, unassigned) [Example 72] | 210 nM |  |
| CCOc1cnc(-c2ccc([C@H](CC)CC(=O)O)cc2Nc2cnc(OCC)nc2)cn1 (single isomer, unassigned) [Example 74] | 450 nM |  |
| CCOc1ncc(Nc2cc([C@H](CC)CC(=O)O)ccc2-c2c(C)n[nH]c2C)cn1 (single isomer, unassigned) [Example 75] | ≥ 1000 nM | 250 to 2000 nM |
| CCOc1ncc(Nc2cc([C@H](CC)CC(=O)O)ccc2-c2nc3ccccc3s2)cn1 (single isomer, unassigned) [Example 76] | 950 nM |  |
| CCOc1ncc(Nc2cc([C@H](CC)CC(=O)O)ccc2-c2cn3ccccc3n2)cn1 (single isomer, unassigned) [Example 77] | ≥ 1000 nM | 250 to 2000 nM |
| CCOc1ncc(Nc2cc([C@H](CC)CC(=O)O)ccc2-c2ccc3nonc3c2)cn1 (single isomer, unassigned) [Example 78] | ≥ 1000 nM | 250 to 2000 nM |
| CCOc1ncc(Nc2cc([C@H](CC)CC(=O)O)ccc2-c2ccn3nccc3n2)cn1 (single isomer, unassigned) [Example 79] | 400 nM |  |
| CCOc1ncc(Nc2cc([C@H](CC)CC(=O)O)ccc2-c2ccc(C#N)c(OC)c2)cn1 (single isomer, unassigned) [Example 80] | ≥ 1000 nM | 250 to 2000 nM |
| CCOc1ncc(Nc2cc([C@H](CC)CC(=O)O)ccc2-c2c(C)nn(C)c2C)cn1 (single isomer, unassigned) [Example 81] | 600 nM |  |
| CCOc1ncc(Nc2cc([C@H](CC)CC(=O)O)ccc2-c2csc(-c3ccccc3)n2)cn1 (single isomer, unassigned) [Example 82] | 110 nM |  |
| CCOc1ncc(Nc2cc([C@H](CC)CC(=O)O)ccc2-c2ccc3c(c2)OC(F)(F)O3)cn1 (single isomer, unassigned) [Example 83] | 170 nM |  |
| CCOc1ncc(Nc2cc([C@H](CC)CC(=O)O)ccc2-c2ccnc(N3CCOCC3)n2)cn1 (single isomer, unassigned) [Example 84] | 760 nM |  |
| CCOc1ncc(Nc2cc([C@H](CC)CC(=O)O)ccc2-c2ccc3cncn3c2)cn1 (single isomer, unassigned) [Example 85] | ≥ 1000 nM | 250 to 2000 nM |
| CCOc1ncc(Nc2cc([C@H](CC)CC(=O)O)ccc2-c2ccn3ccnc3c2)cn1 (single isomer, unassigned) [Example 86] | ≥ 1000 nM | 250 to 2000 nM |
| CCOc1ncc(Nc2cc([C@H](CC)CC(=O)O)ccc2-c2nc(-c3ccccc3)cs2)cn1 (single isomer, unassigned) [Example 87] | ≥ 1000 nM | 250 to 2000 nM |
| CCOc1ncc(Nc2cc([C@H](CC)CC(=O)O)ccc2-c2nnc(C)s2)cn1 (single isomer, unassigned) [Example 89] | 400 nM |  |
| (S)-3-(2-((4-cyanophenyl)amino)- -methyl- [1,1′-biphenyl]-4-yl)-4-methoxybutanoic acid [Example 37] | ≥ 1000 nM | 250 to 2000 nM |
